Where two headings read alike, the source gives them in different places.
What was measured:
Set-up in all cases: species or system SD rats
serotonin S2 receptor = molecular target: T1, serotonin S2 receptor (Rattus norvegicus, UniProt P14842); experiment: serotonin S2 receptor binding test ([3H] Ketanserin Binding Test); details: 1 nM [3H] Ketanserin, rat cortex, 37° C., 15 minutes
T1 construct: The receptor fraction prepared from the cortex was molten and suspended; from tissue; host or cells: cerebral cortex of SD rats (membrane fraction)
Summary of the method: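 Rat (SD, 6–8 weeks) cortical membranes in 50 mM Tris-HCl pH 7.4 were incubated with 1 nM [3H]ketanserin for 15 min at 37 °C, then filtered and counted. Nonspecific binding was defined with methysergide. IC50 was obtained by probit analysis and converted to Ki using the Scatchard-derived Kd.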

adrenergic α1 receptor = adrenergic α1 receptor binding test ([3H] Prazosin Binding Test); details: 1 nM [3H] Prazosin, rat cortex, room temperature, 60 minutes
Summary of the method: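 Rat (SD, 6-8 weeks) cerebral cortex membranes in 50 mM Tris-HCl pH 7.4 incubated with 1 nM [3H]prazosin for 60 min at room temperature; nonspecific binding defined with phentolamine. IC50 by probit method, converted to Ki using radioligand concentration and Scatchard-derived Kd.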

dopamine D2 receptor = molecular target: T2, dopamine D2 receptor (Rattus norvegicus, UniProt P61169); experiment: dopamine D2 receptor binding test ([3H] Spiperone Binding Test); details: 1 nM [3H] Spiperone, rat corpus striatum, room temperature, 60 minutes
T2 construct: the receptor fraction prepared from the corpus striatum was molten and suspended; from tissue; host or cells: corpus striatum of SD rats (membrane fraction)
Summary of the method: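 Rat (SD, 6–8 weeks) corpus striatum membranes in 50 mM Krebs-Tris pH 7.4 were incubated with 1 nM [3H]spiperone at room temperature for 60 minutes, with nonspecific binding defined by excess spiperone. IC50 came from probit analysis; Ki was derived using radioligand concentration and Scatchard Kd.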

[1] = read-out: Ki value, dopamine D2 receptor

T2 sequence (P61169 whole entry): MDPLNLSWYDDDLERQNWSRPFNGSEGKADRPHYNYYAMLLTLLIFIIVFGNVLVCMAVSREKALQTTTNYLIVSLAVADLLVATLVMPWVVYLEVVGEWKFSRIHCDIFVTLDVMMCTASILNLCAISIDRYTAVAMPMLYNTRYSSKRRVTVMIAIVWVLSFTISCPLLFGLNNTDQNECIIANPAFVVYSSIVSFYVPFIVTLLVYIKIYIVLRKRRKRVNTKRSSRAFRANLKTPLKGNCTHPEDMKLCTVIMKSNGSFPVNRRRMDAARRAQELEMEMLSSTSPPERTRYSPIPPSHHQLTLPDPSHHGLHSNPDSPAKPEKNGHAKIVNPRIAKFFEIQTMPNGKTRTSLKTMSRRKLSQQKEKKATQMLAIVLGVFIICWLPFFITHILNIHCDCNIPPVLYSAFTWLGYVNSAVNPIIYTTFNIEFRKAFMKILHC
T1 sequence (P14842 whole entry): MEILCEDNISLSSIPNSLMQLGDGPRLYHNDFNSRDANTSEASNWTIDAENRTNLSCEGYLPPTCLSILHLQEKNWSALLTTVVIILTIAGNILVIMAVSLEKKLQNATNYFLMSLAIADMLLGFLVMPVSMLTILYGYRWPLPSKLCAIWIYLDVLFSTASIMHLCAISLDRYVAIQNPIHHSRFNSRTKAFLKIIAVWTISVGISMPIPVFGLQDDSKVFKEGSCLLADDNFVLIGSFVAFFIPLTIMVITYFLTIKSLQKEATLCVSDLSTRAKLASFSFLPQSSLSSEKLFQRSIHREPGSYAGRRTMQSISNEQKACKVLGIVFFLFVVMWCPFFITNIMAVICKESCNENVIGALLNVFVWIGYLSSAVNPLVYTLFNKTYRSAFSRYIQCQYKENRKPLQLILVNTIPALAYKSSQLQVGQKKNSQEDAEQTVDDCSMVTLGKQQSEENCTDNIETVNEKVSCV

| SMILES | Ki (serotonin S2 receptor) [nM] | Ki (adrenergic α1 receptor) [nM] | Ki (dopamine D2 receptor; [1]) [nM] | Ki (dopamine D2 receptor; Ki value, dopamine D2 receptor) [nM] |
| --- | --- | --- | --- | --- |
| CCN1CCN(c2cc(-c3ccccc3)c(OC)c(C3CCCO3)c2)CC1 (stereo not drawn) [Example 95, 1-Ethyl-4-[3-phenyl-4-methoxy-5-(2-tetrahydrofuranyl)]phenylpiperazine] | 40.9 | 279 | 104 |  |
| CCN1CCN(c2cc(-c3ccccc3)c(OC)c(C(F)Cc3ccccc3)c2)CC1 (stereo not drawn) [Example 96, 1-Ethyl-4-[3-phenyl-4-methoxy-5-(1-fluorophenethyl)]phenylpiperazine] | 35.3 | > 1000 | 1.33 |  |
| CCN1CCN(c2cc(-c3ccccc3)c(OC)c(-c3ccccn3)c2)CC1 [Example 97, 1-Ethyl-4-[3-phenyl-4-methoxy-5-(2-pyridyl)]phenylpiperazine] | 247 | > 1000 | > 1000 |  |
| CCN1CCN(c2cc(C(Cc3ccc(F)cc3)=NO)c(OC)c(-c3ccccc3)c2)CC1 [Example 98, 1-Ethyl-4-{3-phenyl-4-methoxy-5-[4-fluoro-(1-hydroxyimino)phentheyl]}phenylpiperazine] | 19.3 | > 1000 | 64.5 |  |
| CCN1CCN(c2cc(-c3ccccc3)c(OC)c(C(F)Cc3ccccn3)c2)CC1 (stereo not drawn) [Example 99, 1-Ethyl-4-{3-phenyl-4-methoxy-5-[1-fluoro-2-(2-pyridyl)ethyl]}phenylpiperazine] | 170 | > 1000 | 2.93 |  |
| C/C=C/c1cc(N2CCN(CC)CC2)cc(-c2ccccc2)c1OC [Example 100, 1-Ethyl-4-[3-phenyl-4-methoxy-5-(1-propenyl)]phenylpiperazine hydrochloroide] | 827 | 846 | 82.7 |  |
| CCCc1cc(N2CCN(CC)CC2)cc(-c2cccc(F)c2)c1OC [Example 101, 1-Ethyl-4-[3-(3-fluorophenyl)-4-methoxy-5-propyl]phenylpiperazine] | 262 | > 1000 | 118 |  |
| CCN1CCN(c2cc(CO)c(OC)c(-c3ccccc3)c2)CC1 [Example 102, 1-Ethyl-4-(3-phenyl-4-methoxy-5-hydroxymethyl)phenylpiperazine] | > 1000 | 525 | > 1000 |  |
| CCN1CCN(c2cc(C(=O)Cc3ccncc3)c(OC)c(-c3ccccc3)c2)CC1 [Example 103, 1-Ethyl-4-[3-phenyl-4-methoxy-5-(4-pyridyl)acetyl]phenylpiperazine] | 6.65 | > 1000 | 101 |  |
| CCN1CCN(c2cc(-c3ccccc3)c(OC)c([S+](C)[O-])c2)CC1 (stereo not drawn) [Example 104, 1-Ethyl-4-(3-phenyl-4-methoxy-5-methanesulfinyl)phenylpiperazine] | 24.5 | > 1000 | 70.1 |  |
| CCN1CCN(c2cc(-c3ccccc3)c(OC)c([S+]([O-])CC)c2)CC1 (stereo not drawn) [Example 105, 1-Ethyl-4-(3-phenyl-4-methoxy-5-ethanesulfinyl)phenylpiperazine] | 5.21 | 620 | 30.2 |  |
| CCN1CCN(c2cc(C=O)c(OC)c(-c3ccccc3)c2)CC1 [Example 106, 1-Ethyl-4-(3-phenyl-4-methoxy-5-formyl)phenylpiperazine] | 380 | > 1000 |  | 44 |
| CCN1CCN(c2cc(-c3ccccc3)c(OC)c(C3OCCCO3)c2)CC1 [Example 107, 1-Ethyl-4-[3-phenyl-4-methoxy-5-(1,3-dioxan-2yl)]phenylpiperazine] | > 1000 | > 1000 | 429 |  |
| CCN1CCN(c2cc(C(=O)CC3CC3)c(OC)c(-c3ccccc3)c2)CC1 [Example 108, Ethyl-4-(3-phenyl-4-methoxy-5-cyclopropaneacetyl)phenylpiperazine] | 4 | 408 | 162 |  |
| CCN1CCN(c2cc(C(=O)c3ccccn3)c(OC)c(-c3ccccc3)c2)CC1 [Example 109, 1-Ethyl-4-[3-phenyl-4-methoxy-5-(2-pyridylcarbonyl)]phenylpiperazine] | 230 | > 1000 | > 1000 |  |
| CCN1CCN(c2cc(N)c(OC)c(-c3ccccc3)c2)CC1 [Example 110, 1-Ethyl-4-(3-phenyl-4-methoxy-5-amino)phenylpiperazine] | > 1000 | > 1000 | > 1000 |  |
| CCOC(=O)CCc1cc(N2CCN(CC)CC2)cc(-c2ccccc2)c1OC [Example 111, 1-Ethyl-4-[3-phenyl-4-methoxy-5-(2-ethoxycarbonylethyl)]phenylpiperazine] | 58 | 210 | 41.9 |  |

| SMILES | Ki (serotonin S2 receptor) [nM] | Ki (adrenergic α1 receptor) [nM] | Ki (dopamine D2 receptor; [1]) [nM] | Ki (dopamine D2 receptor; Ki value, dopamine D2 receptor) [nM] |
| --- | --- | --- | --- | --- |
| CCN1CCN(c2cc(-c3ccccc3)c(OC)c(C(O)c3ccccn3)c2)CC1 (stereo not drawn) [Example 112, 1-Ethyl-4-[3-phenyl-4-methoxy-5-(2-pyridyl)hydroxymethyl]phenylpiperazine] | 7 | > 1000 | 972 |  |
| CCCc1cc(-c2ccccc2)cc(N2CCN(CC)CC2)c1OC [Example 113, 1-Ethyl-4-(3-phenyl-5-propyl-6-methoxy)phenylpiperazine hyrochloroide] | 21.1 | 28.9 | 8.73 |  |
| CCN1CCN(c2cc(CCC(C)=O)c(OC)c(-c3ccccc3)c2)CC1 [Example 114, 1-Ethyl-4-[3-phenyl-4-methoxy-5-(2-acetylethyl)]phenylpiperazine] | 151 | 569 | 165 |  |
| CCC(OCc1ccccn1)c1cc(N2CCN(CC)CC2)cc(-c2ccccc2)c1OC (stereo not drawn) [Example 115, 1-Ethyl-4-{3-phenyl-4-methoxy-5-[1-(2-pyridylmethoxy)propyl]}phenylpiperazine] | 212 | > 1000 | 81.4 |  |
| CCCc1cc(N2CCN(CC)CC2)cc(-c2ccccc2C)c1OC [Example 116, 1-Ethyl-4-[3-(2-tolyl)-4-methoxy-5-propyl]phenylpiperazine] | 39.5 | > 1000 | 9.65 |  |
| CCCNc1cc(N2CCN(CC)CC2)cc(-c2ccccc2)c1OC [Example 117, 1-Ethyl-4-(3-phenyl-4-methoxy-5-propylamino)phenylpiperazine] | 148 | 334 | 49.6 |  |
| O=C(Cc1ccccc1)c1cc(N2CCNCC2)cc(-c2ccccc2)c1O [Example 118, 1-(3-Phenyl-4-hyroxy-5-phenylaectyl)phenylpiperazine] | 468 | > 1000 | 149 |  |
| CCN1CCN(c2cc(-c3ccccc3)c(OC)c([S+]([O-])Cc3ccccc3)c2)CC1 (stereo not drawn) [Example 119, 1-Ethyl-4-(3-phenyl-4-methoxy-5-benzylsulfinyl)phenylpiperazine] | 34.9 | > 1000 | 35.8 |  |
| CCN1CCN(c2cc(-c3ccccc3)c(OC)c(C(F)Cc3ccncc3)c2)CC1 (stereo not drawn) [Example 121, 1-Ethyl-4-{3-phenyl-4-methoxy-5-[1-fluoro-2-(4-pyridyl)ethyl]}phenylpiperazine] | 168 | 308 | 11 |  |
| CCN1CCN(c2cc(-c3ccccc3)c(OC)c(N(C)S(=O)(=O)CC)c2)CC1 [Example 122, 1-Ethyl-4-[3-phenyl-4-methoxy-5-(N-ethanesulfonyl-N-methylamino)]phenylpiperazine] | 123 | 68.1 | 45.9 |  |
| CCNS(=O)(=O)c1cc(N2CCN(CC)CC2)cc(-c2ccccc2)c1OC [Example 123, 1-Ethyl-4-(3-phenyl-4-methoxy-5-ethylaminofonyl)phenylpiperazine] | 17.9 | > 1000 | 27 |  |
| CCN1CCN(c2cc(-c3ccccc3)c(OC)c(S(N)(=O)=O)c2)CC1 [Example 124, 1-Ethyl-4-(3-phenyl-4-methoxy-5-aminosulfonyl)phenylpiperazine] | > 1000 | > 1000 | 99.2 |  |
| COc1c(C(=O)Cc2ccccc2)cc(N2CCNCC2)cc1-c1ccccc1 [Example 125, 1-(3-phenyl-4-methoxy-5-phenylacetyl)phenylpiperazine] | 1.49 | > 1000 | 101 |  |
| COc1c(C(=O)Cc2ccccc2)cc(N2CCN(Cc3ccccc3)CC2)cc1-c1ccccc1 [Example 126, 1-Benzyl-4-(3-phenyl-4-methoxy-5-phenylacetyl)phenylpiperazine] | 27.3 | > 1000 | 54.6 |  |
| CCC(F)c1cc(N2CCN(CC)CC2)cc(-c2ccccc2)c1Cl (stereo not drawn) [Example 127, 1-Ethyl-4-[3-phenyl-4-chloro-5-(1-fluoropropyl)]phenylpiperazine] | 11.4 | 65.9 | 1.04 |  |
| COc1c(C(=O)Cc2ccccc2)cc(N2CCN(CCO)CC2)cc1-c1ccccc1 [Example 128, 1-(2-Hydroxyethyl)-4-(3-phenyl-4-methoxy-5-phenylacetyl)phenylpiperazine] | 1.16 | > 1000 | 46.1 |  |
| CCC(F)c1cc(-c2ccccc2)cc(N2CCN(CC)CC2)c1 (stereo not drawn) [Example 129, 1-Ethyl-4-[3-phenyl-5-(1-fluoropropyl)]phenylpiperazine] | 34.9 | 39.8 |  | 1.86 |
